Consider twelve compounds from paper PMC7313430, “Heme-Dependent ER Stress Apoptosis: A Mechanism for the Selective Toxicity of the Dihydroartemisinin, NSC735847, in Colorectal Cancer Cells” (Frontiers in Oncology, 2020).

The subject of series [1] is caspase 3/7 activity in HT29 cells. Description: Caspase-Glo 3/7 activity assay in HT29. It is filed as cell-based, human. Conditions: for tumor selectivity of apoptosis induction (caspase 3/7, words): 16 h, HT29 compared to HCT-116 and FHC; for effect of pretreatment on NSC735847-induced caspase 3/7 activity: HT29, pretreatment 1 h (GSK 10 μM, SAL 50 μM), then 10 μM NSC735847 16 h. As for the experimental part:
The cells were plated in white-walled 96-well-plates and then they were cultured at 37°C for 48 h. Serum-free culture medium containing the appropriate concentration of different agents was added to the cells for the indicated period of time. Caspase-Glo 3/7 reagent (Promega, Madison, WI) was added to each well and luminescence was detected as directed by the manufacturer. The Caspase-Glo 3/7 kit measures the activity of the executioner caspases 3 and 7 using the luminogenic substrate (Z-DEVD-aminoluciferin) as substrate.

The next series deals with FHC cells. Kind of series: MTS cell viability assay, non-tumorigenic colon cells. It is filed as cell-based. The note with it: Homo sapiens, 24 h treatment. The procedure: (§1) The human colon cancer cell lines HT29 and HCT116 were cultured in McCoy's 5A medium (Sigma Aldrich, St. Louis, MO) containing 10% heat-inactivated fetal bovine serum (FBS), penicillin (100 units/ml), and streptomycin (100 μg/ml). The non-tumorigenic colon cell line, FHC, was cultured in DMEM: F12 (1:1) medium supplemented with 10% heat inactivated FBS, 25 mM HEPES (Thermo Fisher Scientific Inc., IL), 10 ng/ml cholera toxin (Sigma Aldrich, St. Louis, MO), 0.005 mg/ml insulin (Thermo Fisher Scientific Inc., IL), 0.005 mg/ml, transferrin (Sigma Aldrich, St. Louis, MO), 100 ng/ml hydrocortisone (Sigma Aldrich, St. Louis, MO), 20 ng/mL human recombinant epidermal growth factor (Thermo Fisher Scientific Inc., IL), 100 units/ml penicillin, and 100 μg/ml streptomycin.
(§2) Cells were cultured in 96-well-plates for 48 h before treatment. Serum-free media containing different agents was added to the cells at the concentration and time period described in the figure legend. MTS reagent (Promega, Madison, WI) was then added to each well and the absorbance was measured at 495 nm as directed by the manufacturer. In the presence of MTS reagent, the absorbance reading is proportional to the number of viable cells. The half-maximal inhibitory concentration (IC50) of the tested compounds is the concentration that reduces the viability of cells by 50%. IC50 was calculated after 24 h of treatment ([30], [31]) as described previously ([32]–[34]) from dose-response curves (log drug concentration vs. percentage viability from untreated cells) generated by non-linear regression analysis with GraphPad Prism 5 software (GraphPad Software, San Diego, California).
Background: Formazan colour is commonly taken as a measure of viable cells.

Another series deals with HT29 cells. Description: MTS cell viability assay, colon cancer cells HT29. It is filed as cell-based, human. Conditions: for IC50: Homo sapiens, HT-29, MTS viability, 24 h treatment; for selective cytotoxicity toward colon cancer cells vs FHC: HT-29/HCT-116 compared to FHC; for effect of pretreatment on NSC735847-mediated cell death: HT29, MTS, pretreatment with the agent, then NSC735847 (10 μM; 5 μM for HTF) 24 h. The procedure:
as §1, §2

The test system of the next series is HCT116 cells. Kind of series: MTS cell viability assay, colon cancer cells HCT116. It is filed as cell-based, human. Conditions: for IC50: Homo sapiens, HCT-116, MTS viability, 24 h treatment; for cytotoxic activity against HCT-116 cells: 3.1-25 μM. As for the experimental part:
as §1, §2

For series [2], the system named is P-PERK, P-eIF2α, CHOP10, PARP, caspase-3, ferritin in HT29 cells. Kind of series: Western blot of ER stress and apoptosis proteins in HT29. It is filed as cell-based, human. Conditions: for effect of pretreatment on NSC735847-induced CHOP10 expression: HT29, pretreatment (GSK 10 μM, salubrinal 50 μM, SA 10 mM), then 10 μM NSC735847 8 h. As for the experimental part:
Western blot analysis was conducted as described previously ([35]). Briefly, the cells were cultured in 100 mm dishes for 48 h before treatment. The cells were then treated as described in the figure legends. For vehicle-treated samples, DMSO was added to serum-free culture medium at a maximum concentration of 0.1% (v/v). After experimentation, the cells were washed twice with phosphate buffer saline (PBS) and then 100 μl of Triton lysis buffer [25 mM HEPES, 100 mM NaCl, 1 mM EDTA, 10% (v/v) glycerol, 1% (v/v) Triton X-100], containing protease and […] inhibitors, was added to the cells. Protein concentrations were determined by using BCA reagents (Thermo Fisher Scientific Inc., IL). Equal concentrations of each sample were loaded onto SDS–PAGE gels and protein bands transferred to nitrocellulose membranes using semi-dry transfer cells (TRANS-BLOTSD; Bio-Rad Laboratories, Hercules, CA). The membranes were incubated for 2 h at room temperature in Odyssey blocking buffer (LI-COR Biosciences, Lincoln, NE). Membranes were then incubated overnight at 4C with primary antibody followed by 1 h of incubation at room temperature with secondary antibody. All primary antibodies were used at a dilution of 1:1,000 except anti-GAPDH and anti-CHOP10 antibodies which were used at 1:10,000 and 1:500 dilutions, respectively. All secondary antibodies were used at a dilution of 1:15,000. Protein bands were visualized using Odyssey® CLx digital fluorescence imaging system (LI-COR, Lincoln, Nebraska). Band intensities were quantified by using ImageJ software ([36]).

For series [3], the system named is reactive oxygen species in HT29 cells. Kind of series: Oxidative stress measurement with CM-H2DCFDA (DCF). The note with it: HT29, 0.25 mM Trolox 2 h, then 10 μM NSC735847 8 h. It is filed as cell-based, human. As for the experimental part:
Oxidative stress was measured in cultured cells by using the probe, chloromethyl-2′,7′ dichlorodihydrofluorescein diacetate (CM-H2DCFDA or DCF) purchased from Life Technologies (Grand Island, NY). […] The cells were loaded with 5 μM DCF in phenol red-free, serum-free medium for 30 min and then the cells were treated with the appropriate drug for the indicated period of time. The cells were then trypsinized and resuspended in serum-containing, phenol red-free medium. The fluorescence of DCF was measured using an Accuri C6 flow cytometer (BD Accuri Cytometers, Ann Arbor, MI) at an excitation wavelength of 488 and emission of 533 ± 30 nm.

[4] abbreviates: MTS, 24 h, single agents or combinations.

Regarding `CC1CCC2C(C)C(OCC(COC3OC4OC5(C)CCC6C(C)CCC(C3C)C46OO5)N3CCOCC3)OC3OC4(C)CCC1C32OO4` (stereo not drawn) [compound (1)], the “tumor selectivity of apoptosis induction (caspase 3/7, words)” value (shortened to “tumor selectivity of apoptosis induction”) in series [1] is reported as “did not exhibit tumor selectivity”. Besides, the IC50 in the series with FHC cells, in the series with HT29 cells and with HCT116 cells was greater than 25 µM in each case. For the same compound, the “selective cytotoxicity toward colon cancer cells vs FHC” value with HT29 cells (MTS, 24 h) is “not selectively cytotoxic toward either colon cancer cell line”.

With `O=C(/C=C/c1ccccc1)NC(NC(=S)Nc1cccc2cccnc12)C(Cl)(Cl)Cl` (stereo not drawn) [salubrinal, reference compound], the “effect of pretreatment on NSC735847-induced caspase 3/7 activity” value in series [1] is on record as “blocked”. Moreover, the “effect of pretreatment on NSC735847-induced CHOP10 expression” value in series [2] was “blocked CHOP10 expression”. Besides, the “effect of pretreatment on NSC735847-mediated cell death” value in the series on HT29 cells was “blocked”.

`CC1CCC2C(C)C(OCC(COC3OC4OC5(C)CCC6C(C)CCC(C3C)C46OO5)N3CCCCC3)OC3OC4(C)CCC1C32OO4` (stereo not drawn) [(4)]: in series [1], the “tumor selectivity of apoptosis induction” value is “preferentially induced apoptosis in HT-29 compared to FHC cells”. In addition, the IC50 in the series on FHC cells, in the series on HT29 cells and with HCT116 cells was greater than 25 µM each time. For the same compound, the “selective cytotoxicity toward colon cancer cells vs FHC” value with HT29 cells (MTS, 24 h) was “more cytotoxic toward HT-29 than FHC cells”. Moreover, the “cytotoxic activity against HCT-116 cells” value with HCT116 cells (MTS, 24 h) is “inactive”.

Turning to `O=C(CC(c1ccccc1)c1ccccc1)Cn1ccnc1` [QC-308, reference compound], the “effect of pretreatment on NSC735847-mediated cell death” value in the series with HT29 cells was “increased the cytotoxicity of NSC735847”.

With `O=C1[O][Pt]2([NH][C@@H]3CCCC[C@H]3[NH]2)[O]C1=O` [OX, oxaliplatin, reference compound], in the series with HT29 cells (setting [4]), the “cell death / survival of HT29 cells” value was “induced death in a concentration-dependent manner”. In the series with HCT116 cells (setting [4]), the “cell death / survival of HCT116 cells” value was “induced death in a concentration-dependent manner”.

Regarding `Cn1cc(-c2ccc3c(c2)CCN3C(=O)Cc2cccc(C(F)(F)F)c2)c2c(N)ncnc21` [GSK2606414, 7-methyl-5-(1-{[3-(trifluoromethyl)phenyl]acetyl}-2,3-dihydro-1H-indol-5-yl)-7H-p yrrolo[2,3-d]pyrimidin-4-amine, reference compound], in series [1], the “effect of pretreatment on NSC735847-induced caspase 3/7 activity” value is given as “inhibited caspase 3/7 activity”. Also, the “effect of pretreatment on NSC735847-induced PERK phosphorylation” value in series [2] (HT29, 10 μM pretreatment 1 h, then 10 μM NSC735847 1 h) is “decreased the phosphorylation of PERK”. The “effect of pretreatment on NSC735847-induced CHOP10 expression” value in series [2] is “decreased”. In addition, the “effect of pretreatment on NSC735847-mediated cell death” value with HT29 cells is listed as “suppressed NSC735847-mediated cell death”.

As for `CC1CCC2C(C)C(OCC(COC3OC4OC5(C)CCC6C(C)CCC(C3C)C46OO5)NCc3ccccc3)OC3OC4(C)CCC1C32OO4` (stereo not drawn) [(5)], in series [1], the “tumor selectivity of apoptosis induction” value is “preferentially induced apoptosis in HT-29 compared to FHC cells”. The IC50 in the series on FHC cells was greater than 25 µM; in the series on HT29 cells, 15.2 ± 1.12 µM; in the series with HCT116 cells, greater than 25 µM. The “selective cytotoxicity toward colon cancer cells vs FHC” value in the series on HT29 cells (MTS, 24 h) is on record as “more cytotoxic toward HT-29 than FHC cells”. Further, the “cytotoxic activity against HCT-116 cells” value with HCT116 cells (MTS, 24 h) is “inactive”.

For `CC1CCC2C(C)C(OCC(COC3OC4OC5(C)CCC6C(C)CCC(C3C)C46OO5)NNC(=O)c3ccncc3)OC3OC4(C)CCC1C32OO4` (stereo not drawn) [compound (2)], the “tumor selectivity of apoptosis induction” value in series [1] was “increase in apoptosis in HT29 compared to HCT-116 and FHC cells”. Moreover, the IC50 with FHC cells worked out at 23.2 ± 1.04 µM; with HT29 cells, 19.6 ± 1.06 µM; in the series on HCT116 cells it was 22.1 ± 1.06 µM. For the same compound, the “selective cytotoxicity toward colon cancer cells vs FHC” value with HT29 cells (MTS, 24 h) is reported as “not selectively cytotoxic toward either colon cancer cell line”.

Turning to `Cc1c(C)c2c(c(C)c1O)CCC(C)(C(=O)O)O2` (stereo not drawn) [Trolox, reference compound], the “effect of pretreatment on NSC735847-mediated cell death” value in the series on HT29 cells is recorded as “did not rescue the cells from NSC735847-induced cytotoxicity”. Further, the “effect of pretreatment on NSC735847-induced oxidative stress” value in series [3] was “significant reduction in oxidative stress”.

`CC(=O)N(O)CCCCCNC(=O)CCC(=O)N(O)CCCCCNC(=O)CCC(=O)N(O)CCCCCN` [DFO, deferoxamine, reference compound]: the “effect of pretreatment on NSC735847-mediated ferritin protein expression” value in series [2] (HT29, 100 μM DFO 4 h, then 10 μM NSC735847 24 h) is reported as “inhibited NSC735847-mediated ferritin expression”. The “effect of pretreatment on NSC735847-mediated cell death” value in the series with HT29 cells is recorded as “did not prevent NSC735847-mediated cell death”.

With HTF: iron-loaded transferrin molecule, in the series on HT29 cells, the “effect of pretreatment on NSC735847-mediated cell death” value is on record as “did not enhance the killing effect of NSC735847”.

Turning to `CC(=O)CC(=O)CCC(=O)O` [succinylacetone, reference compound], the “effect of pretreatment on NSC735847-induced CHOP10 expression” value in series [2] was “blunted NSC735847-induced CHOP10 expression”. For the same compound, in the series on HT29 cells, the “effect of pretreatment on NSC735847-mediated cell death” value is reported as “rescued the cells from the cytotoxic effects of NSC735847”.

By IC50 is commonly meant the concentration that inhibits the measured activity by half.
